The values that follow come from patent publication US20120329770A1, “CEPHALOSPORIN DERIVATIVES USEFUL AS BETA-LACTAMASE INHIBITORS AND COMPOSITIONS AND METHODS OF USE THEREOF” (priority 2010, published 2012).

The test system of assay [1] is Chryseobacterium meningosepticum IS 5824. Kind of assay: Antimicrobial MIC / checkerboard assay for synergy with meropenem. It counts as cell-based. Conditions: for FIC: meropenem + compound, checkerboard. On the procedure:
(§1) Assays were conducted as described by Weigand et al. (Weigand, I.; Hilpert, K.; Hancock, R. E. Nat. Protocols 2008, 3, 163-175).
(§2) To determine the lowest concentration of an antimicrobial agent that inhibits visible growth of a microorganism, 50 μL of compound solution and 50 μL of buffer solution were added to each well at the desired concentration(s) (i.e. 4×the final concentration) as well as a zero control. Stock solutions of 10 mg/mL, were prepared in DMSO, followed by two-fold serial dilutions in Müeller-Hinton media and 100 μL of bacteria (ca. 5×10^5 CFU/mL) was added to each well. Plate counts were performed on the control wells to determine bacterial innoculum level. The innoculum was prepared by taking an overnight culture in Müeller-Hinton media and diluting to McFarland's 0.5 standard, and diluting a further 1:100 prior to addition to the plate. Lanes with no bacteria added served as sterility controls and lanes with no compound served as growth controls. Organisms were allowed to grow overnight at 37° C. in a humid environment and the plates were monitored at 625 nm for growth. MIC was determined to be the last well with no growth.
(§3) In the checkerboard assay one compound is serially diluted along the ordinate, and the second compound is serially diluted along the abscissa. […] A 50 μL aliquot of the compound was added to each well at the desired concentration(s) (i.e. 4×the final concentration) as well as a zero control. Stock solutions of 10 mg/mL of compound were prepared in DMSO, followed by two-fold serial dilutions in Müeller-Hinton media. Finally, 100 μL of bacteria (ca. 5×10^5 CFU/mL) was added to each well. Plate counts were performed on the control wells. Innoculum was prepared by taking an overnight culture in Müeller-Hinton media and diluting to McFarland's 0.5 standard, and diluting a further 1:100 prior to addition to the plate. Lanes with no bacteria added served as sterility controls and lanes with no meropenem or compound served as growth controls. The final volume in each well was 200 μL. The plates were allowed to grow overnight at 37° C. in a humid environment and were monitored at 625 nm for growth. […] Sterility controls and growth controls were included on each plate. The fractional inhibitory concentration (FIC) was determined as follows:
(§4) Results were interpreted in the following way: Synergistic if FIC≦0.5; Additive if […]; Indifferent if […]; Antagonistic if FIC≧2.0.

Assay [2] deals with Stenotrophomonas maltophilia IS 6069. The assay is described as above. Conditions: S. maltophilia IS 6069, meropenem + compound. It counts as cell-based. On the procedure:
as §1, §2, §3, §4

For assay [3], the system named is Pseudomonas aeruginosa IS 6225. Described as above. The conditions noted are these: P. aeruginosa IS 6225, meropenem + compound. It is filed as cell-based. The procedure:
as §1, §2, §3, §4

Assay [4] deals with Pseudomonas aeruginosa C-10. Described as above. It counts as cell-based. The conditions noted are these: P. aeruginosa C-10; for FIC: meropenem + compound, checkerboard. On the procedure:
as §1, §2, §3, §4

For assay [5], the system named is Stenotrophomonas maltophilia IS 6081. The description is as above. It counts as cell-based. Conditions: S. maltophilia IS 6081, meropenem + compound. The procedure: as §1, §2, §3, §4
Assay [6] has as its system Stenotrophomonas maltophilia IS 5568. The description is as above. The conditions noted are these: for FIC: S. maltophilia IS 5568, meropenem + compound, checkerboard. It is filed as cell-based. On the procedure:
as §1, §2
as §3, with “Lanes with no bacteria added served as sterility controls and lanes with no meropenem or compound served as growth controls.” left out
as §4

Assay [7] concerns Pseudomonas aeruginosa IS 5563. The assay is described as above. It is filed as cell-based. The conditions noted are these: for FIC: P. aeruginosa IS 5563, meropenem + compound, checkerboard. The procedure: as §1, §2
as §3, with “Lanes with no bacteria added served as sterility controls and lanes with no meropenem or compound served as growth controls.” left out
as §4

The target of assay [8] is T1, IMP-1 (Serratia marcescens, UniProt P52699).
T1 construct: made in house; host or cells: Escherichia coli BL21(DE3) carrying pCIP4
Description: Inhibition of IMP-1-catalyzed hydrolysis of meropenem in vitro (310 nm). It counts as biochemical. The conditions noted are these: for protection of meropenem from IMP-1-catalyzed hydrolysis in vitro: IMP-1 12 nM, meropenem 200 μM, test substance 100 μM, 310 nm.

Assay [9] has as its target T2, IMP-1 metallo-β-lactamase (Serratia marcescens, UniProt P52699).
T2 construct: made in house; host or cells: Escherichia coli BL21(DE3) carrying pCIP4
Kind of assay: Inhibition of β-lactamases, nitrocefin hydrolysis. It counts as biochemical. From the text:
IMP-1 metallo-β-lactamase was expressed in Esherichia coli BL21(DE3) carrying pCIP4 and purified as reported by Laraki et al. (Antimicrob. Agents Chemother. 1999, 43, 902-906). The homogeneity of the protein was confirmed by SDS-PAGE according to the method of Laemmli (Nature 1970, 227, 680-685). The molecular weight of purified IMP-1, Mr=25,112±0.5 Da, as determined by ESI-MS, was in agreement with that deduced from its amino acid sequence (Laraki et al. Antimicrob. Agents Chemother. 1999, 43, 890-901).
Assay conditions for IC50 determinations involved enzyme concentrations ranging between 2 and 6 nM. The concentration used for the nitrocefin substrate was 100 μM. Assays with OXA-10 and OXA-45 were conducted at pH 7.0 with 100 mM sodium phosphate buffer containing 25 mM sodium bicarbonate. Assays with KPC-2 and GC1 were performed at pH 7.0 in 50 mM HEPES buffer and assays with IMP-1 and VIM-2 were performed in the same buffer with the addition of 500 mM NaCl and 1 μM ZnSO4. BSA was used with all enzymes (except OXA-10 and KPC-2) at concentrations of 0.5-1.0 μg/mL.
Inhibitors were pre-incubated for 10 minutes at room temperature with enzyme assay solutions prior to the addition of the nitrocefin. These compounds were dissolved in DMSO and prepared at various concentrations such that the final concentration of DMSO was 1% during the pre-incubation. The reaction was initiated by the addition of the pre-incubated enzyme-cyclobutanone solution (90 μL) to a solution of nitrocefin in buffer (10 μL). Enzymatic activity was determined using the initial rate of increase in absorbance at 482 nm

Assay [10] relates to β-lactamases. Kind of assay: β-Lactamase inhibition, result in words. It is filed as biochemical. From the text:
In preferred embodiments, the compounds incorporate a good leaving group at the C3′ carbon that can be readily expelled as an anion. In some embodiments, the leaving group is a C3′-benzoylthio group, which may be substituted or unsubstituted, according to the definitions provided above for substituted or unsubstituted.
This effect correlates with the expected better leaving group ability of the benzoylthio group in the hydrolysis product versus the benzoate group in the comparative compound.

T1 sequence (P52699 19-246 limits assumed): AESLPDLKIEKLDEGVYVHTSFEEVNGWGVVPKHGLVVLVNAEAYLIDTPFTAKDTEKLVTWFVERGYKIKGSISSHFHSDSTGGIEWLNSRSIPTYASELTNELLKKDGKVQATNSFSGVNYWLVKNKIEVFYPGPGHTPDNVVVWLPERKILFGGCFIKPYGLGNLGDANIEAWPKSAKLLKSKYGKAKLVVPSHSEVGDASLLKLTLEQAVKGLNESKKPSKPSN
T2 sequence (P52699 19-246, looked up): as the sequence (P52699 19-246 limits assumed) above

In the case of `O=C(Cc1ccc(Cl)cc1)N[C@@H]1C(=O)N2C(C(=O)O)=C(CSC(=O)c3ccccc3)CS[C@H]12` [CMPD D], the FIC in assay [1] (C. meningosepticum IS 5824) is on record as 0.2578; in assay [2], 0.1875; in assay [3], 2; in assay [4], 1; in assay [5] it was 1.03; in assay [6], 0.126. Moreover, the FIC in assay [7] turned out to be 0.2519.
As to `CO/N=C(\C(=O)N[C@@H]1C(=O)N2C(C(=O)O)=C(CSC(=O)c3ccco3)CS[C@H]12)c1csc(N)n1` [ceftiofur], in assay [8], the “performance as inhibitor” value is reported as “poor performance” and the “protection of meropenem from IMP-1-catalyzed hydrolysis in vitro” value is reported as “relatively poor protection”.
With `O=C(Cc1ccc(F)cc1)N[C@@H]1C(=O)N2C(C(=O)O)=C(CSC(=O)c3ccccc3)CS[C@H]12` [CMPD E], the FIC in assay [1] (C. meningosepticum IS 5824) was 0.2578; in assay [2], 0.1875; in [3], 2; in [4], 0.625; in assay [5], 1.03; in [6] it was 0.126. The FIC in assay [7] is given as 0.1269.
In the case of `O=C(Cc1ccc(F)cc1)N[C@@H]1C(=O)N2C(C(=O)O)=C(CSC(=O)c3ccccc3)CS[C@H]12` [Example 16, (6R,7R)-3-(benzoylthiomethyl)-7-(2-(4-fluorophenyl)acetamido)-8-oxo-5-thia-1-azabicyclo[4.2.0]oct-2-ene-2-carboxylic acid], the “protection of meropenem from IMP-1-catalyzed hydrolysis in vitro” value in assay [8] was “good protection”.
Regarding `CC(=O)SCC1=C(C(=O)O)N2C(=O)[C@@H](NC(=O)Cc3cccs3)[C@H]2SC1` [Example 12, (6R,7R)-3-(acetylthiomethyl)-8-oxo-7-(2-(thiophen-2-yl)acetamido)-5-thia-1-azabicyclo[4.2.0]oct-2-ene-2-carboxylic acid], the “performance as inhibitor” value in assay [8] is “poor performance”.
For the molecule `C[C@@H](O)[C@H]1C(=O)N2C(C(=O)O)=C(S[C@@H]3CN[C@H](C(=O)N(C)C)C3)[C@H](C)[C@H]12` [Mero, meropenem, reference compound], the “MIC Mero Alone” value in assay [1] (C. meningosepticum IS 5824) amounted to 32 µg/mL. For the same molecule, the minimal inhibitory concentration (MIC) (commonly the lowest concentration that inhibits growth of the organism) was 64 µg/mL in [1] (Elizabethkingia meningoseptica, IS5824, read-out: MIC Mero Alone, C. meningosepticum IS 5824); 16 µg/mL in [4] (Pseudomonas aeruginosa, C10, read-out: MIC Mero Alone); 64 µg/mL in [6] (Stenotrophomonas maltophilia, IS5568, read-out: MIC Mero Alone, S. maltophilia IS 5568); 64 µg/mL in assay [7] (Pseudomonas aeruginosa, IS5563, read-out: MIC Mero Alone, P. aeruginosa IS 5563).
On to `OC(=S)c1ccccc1` [benzoylthio, reference compound], for which the “inhibition of the MBL IMP-1” value in assay [9] is recorded as “poor inhibitor”.
Turning to `COc1cccc(CC(=O)N[C@@H]2C(=O)N3C(C(=O)O)=C(CSC(=O)c4ccccc4)CS[C@H]23)c1` [CMPD F], the FIC came out at 0.2578 in [1] (C. meningosepticum IS 5824); 0.1875 in assay [2]; 3 in assay [3]; 1.5 in assay [4]; 0.281 in assay [5]; 0.126 in assay [6]. Further, in assay [7], the FIC amounted to 0.2519.
As to `O=C(Cc1cccs1)N[C@@H]1C(=O)N2C(C(=O)O)=C(CSC(=O)c3ccccc3)CS[C@H]12` [CMPD B], the FIC in assay [1] (C. meningosepticum IS 5824) is listed as 0.5078; in [2] it was 0.1875; in assay [3] it was 0.375; in [5] it was 0.1328; in assay [6] it was 0.1289; in [7], 0.1328.
In the case of `O=C(Cc1cccs1)NC1C(=O)N2C(C(=O)O)=C(COC(=O)c3ccccc3)CSC12` (centres unmarked) [oxygen analogue, reference compound], the “β-lactamase inhibition” value in [10] is recorded as “substrate but not an inhibitor”.
